Assays:
[1] = molecular target: T1, α7* nAChR (Rattus norvegicus, UniProt Q05941); test: Competition assay using [3H]methyllycaconitine and rat brain P2-fraction; type: binding; conditions: preliminary results; read-out: α7* [3H]MLA rat brain Ki
T1 construct: Frozen rat brains were thawed slowly before the preparation of the P2 rat brain membrane fraction; from tissue; host or cells: rat brain P2 membrane fraction
Description: (§1) Preparation of Rat Brains
(§2) Frozen rat brains were thawed slowly before the preparation of the P2 rat brain membrane fraction (30-60 min on ice, afterwards at room temperature). […] After the determination of the wet weight (1.32 g on average), the brains were pressed into a pulp using a syringe and homogenised in saccharose buffer with a glass teflon homogenizator (Potter, 10 seconds). The tissue was then centrifuged (1,000×g, 20 min, 4° C.), the supernatant (S1) aspirated with a Pasteur pipette and stored on ice. The P1 pellet was re-suspended in saccharose buffer and the centrifugation was repeated. The supernatant S1′ was collected and added to the supernatant S1. The combined supernatants were centrifuged (25,000×g, 20 min, 4° C.), the supernatant S2 was removed and the pellet P2 collected and diluted with HSS-buffer. The buffer volume added was calculated on the basis of the wet weight in a ratio 1:2.
(§3) The final pellet was stored in aliquots at −80° C. On the day of the experiment, the P2 membrane fraction was thawed, diluted with HSS-buffer (30-fold volume), homogenised and centrifuged (35,000×g, 10 min, 4° C.). The collected pellet was suspended in HSS-buffer and used in the radioligand binding experiments.
Competition Assay Using [^3H]Methyllycaconitine ([^3H]MLA) and Rat Brain P2-Fraction (α7*nAChR)
A dilution row of 6-9 concentrations of the test compound was prepared. Each assay sample, with a total volume of 250 μL contained 50 μL of the test compound, 100 μL of [^3H]MLA and 100 μL of the P2-membrane protein fraction (60-70 μg). Non-specific binding was determined in the presence of 1 μM MLA. The samples were homogenised and incubated for 120 min at 22° C. The incubation was terminated by vacuum filtration through glass fibre filters pre-soaked in 1% poly(ethyleneimine). The filters were rinsed three times with TRIS-buffer, punched out and transferred into 4 mL scintillation vials. The scintillation vials were filled with scintillation cocktail (2 mL) and the radioactivity was measured using a liquid scintillation counter.
Assays were carried out in duplicates, triplicates or quadruplicates.

[2] = molecular target: T2, α4β2* nAChR (Rattus norvegicus, UniProt P09483+P12390); test: biochemical; type: binding
T2 construct: Frozen rat brains were thawed slowly before the preparation of the P2 rat brain membrane fraction; from tissue; host or cells: rat brain (without cerebellum and medulla), P2 membrane fraction
T2 sequence (P12390 25-500): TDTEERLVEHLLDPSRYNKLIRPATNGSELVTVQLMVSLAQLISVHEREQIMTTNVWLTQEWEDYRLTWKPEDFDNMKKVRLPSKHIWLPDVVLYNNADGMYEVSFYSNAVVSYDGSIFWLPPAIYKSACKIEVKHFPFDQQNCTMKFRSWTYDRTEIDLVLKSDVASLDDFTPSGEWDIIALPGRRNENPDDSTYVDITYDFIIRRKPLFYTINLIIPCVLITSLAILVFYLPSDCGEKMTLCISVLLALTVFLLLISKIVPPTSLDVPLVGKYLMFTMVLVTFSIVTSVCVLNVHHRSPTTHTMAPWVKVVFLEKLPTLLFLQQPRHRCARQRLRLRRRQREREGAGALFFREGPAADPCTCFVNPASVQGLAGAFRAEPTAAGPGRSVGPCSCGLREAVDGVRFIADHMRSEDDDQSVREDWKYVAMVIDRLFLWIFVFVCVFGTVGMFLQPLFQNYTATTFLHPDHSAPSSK
T2 sequence (P09483 31-630): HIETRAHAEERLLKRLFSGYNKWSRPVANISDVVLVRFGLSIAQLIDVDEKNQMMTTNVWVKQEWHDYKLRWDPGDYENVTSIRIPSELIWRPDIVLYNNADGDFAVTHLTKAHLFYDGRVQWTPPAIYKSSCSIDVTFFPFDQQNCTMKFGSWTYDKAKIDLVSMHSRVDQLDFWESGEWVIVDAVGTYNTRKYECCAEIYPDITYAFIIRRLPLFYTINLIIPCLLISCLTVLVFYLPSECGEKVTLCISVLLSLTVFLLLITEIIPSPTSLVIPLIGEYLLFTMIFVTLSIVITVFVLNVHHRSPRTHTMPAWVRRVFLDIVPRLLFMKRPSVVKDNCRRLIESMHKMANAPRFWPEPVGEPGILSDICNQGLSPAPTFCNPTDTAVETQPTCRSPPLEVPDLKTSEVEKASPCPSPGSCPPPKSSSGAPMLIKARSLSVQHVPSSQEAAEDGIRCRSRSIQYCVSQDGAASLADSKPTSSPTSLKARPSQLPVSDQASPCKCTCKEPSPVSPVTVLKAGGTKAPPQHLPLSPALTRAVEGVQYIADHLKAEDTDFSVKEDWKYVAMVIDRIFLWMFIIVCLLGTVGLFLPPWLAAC
Description: as §1, §2, §3
Competition Assay Using (±)-[^3H]Epibatidine ([^3H]Epi) and Rat Brain P2-Fraction (α4β2*nAChR)
(§4) A dilution row of 6-9 concentrations of the test compound was prepared. Each assay sample, with a total volume of 500 μL contained 100 μL of the membrane protein (60 μg), 100 μL of (±)-[^3H]epibatidine (0.5 nM), 100 μL of HSS-buffer and 200 μL of the test compound Non-specific binding was determined in the presence of 300 μM (−)-nicotine tartrate salt. The samples were homogenised and incubated for 90 min at 22° C. The incubation was terminated by vacuum filtration through glass fibre filters pre-soaked in 1% poly(ethyleneimine). The filter were rinsed three times with TRIS-buffer, punched out and transferred into 4 mL scintillation vials. The scintillation vials were filled with scintillation cocktail (2 mL) and the radioactivity was measured using a liquid scintillation counter.
Assays were carried out in duplicate, triplicates or quadruplicates.
(§5) Biological evaluation of the compounds on various nicotinic actylcholine receptors (nAChRs) was conducted with cells described below. […] Functional agonist activity of the cytisines in cells using a fluorescence assay sensitive to changes in cytosolic calcium.

[3] = molecular target: T3, α3β4* nAChR (Bos taurus, UniProt Q07263+Q8SPU6); test: biochemical; type: binding, calf
T3 construct: 100 μL of the calf adrenal membrane protein fraction (60-70 μg); from tissue; host or cells: calf adrenals, membrane fraction
T3 sequence (Q07263 22-495): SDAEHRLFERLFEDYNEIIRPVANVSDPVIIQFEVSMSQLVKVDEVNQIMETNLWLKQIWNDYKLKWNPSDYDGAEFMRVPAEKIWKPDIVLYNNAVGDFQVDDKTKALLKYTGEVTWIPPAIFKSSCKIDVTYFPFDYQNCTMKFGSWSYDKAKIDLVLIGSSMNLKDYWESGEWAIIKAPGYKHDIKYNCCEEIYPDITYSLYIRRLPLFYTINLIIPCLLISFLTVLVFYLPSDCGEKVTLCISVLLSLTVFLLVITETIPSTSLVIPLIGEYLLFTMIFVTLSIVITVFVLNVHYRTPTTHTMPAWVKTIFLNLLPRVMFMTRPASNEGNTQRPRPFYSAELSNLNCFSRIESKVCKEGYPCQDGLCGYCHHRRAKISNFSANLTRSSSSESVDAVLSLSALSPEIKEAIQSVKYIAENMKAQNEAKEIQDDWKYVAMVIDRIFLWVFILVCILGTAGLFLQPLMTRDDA
T3 sequence (Q8SPU6 20-496): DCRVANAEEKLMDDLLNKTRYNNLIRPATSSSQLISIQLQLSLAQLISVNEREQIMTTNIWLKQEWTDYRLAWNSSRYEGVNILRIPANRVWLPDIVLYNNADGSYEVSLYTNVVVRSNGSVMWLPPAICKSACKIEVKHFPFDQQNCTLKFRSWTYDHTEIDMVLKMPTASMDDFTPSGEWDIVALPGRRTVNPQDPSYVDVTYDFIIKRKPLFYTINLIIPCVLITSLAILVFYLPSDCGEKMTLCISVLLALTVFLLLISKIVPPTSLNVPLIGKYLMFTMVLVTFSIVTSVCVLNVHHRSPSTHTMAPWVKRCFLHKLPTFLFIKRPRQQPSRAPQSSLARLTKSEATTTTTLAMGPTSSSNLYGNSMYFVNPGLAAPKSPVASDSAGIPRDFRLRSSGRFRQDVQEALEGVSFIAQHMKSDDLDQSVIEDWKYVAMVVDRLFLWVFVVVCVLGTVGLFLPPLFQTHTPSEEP
Description: Preparation of Calf Adrenals
Frozen calf adrenals (−80° C.) were placed on ice for 30-60 min and allowed to thaw slowly before they were cut into small pieces. After determination of the wet weight (4-6 g), the tissue was homogenised in HSS-buffer (Ultraturrax at 750 rpm). The homogenate was centrifuged (30,000×g, 10 min, 4° C.), the pellets collected and washed. This procedure was repeated five times. The buffer volume used to re-suspend the pellets was calculated on the basis of the wet weight in a ratio 1:6.5.
The prepared tissues were stored in aliquots at −80° C. One hour before the experiments the tissues were slowly thawed, homogenised in HSS-buffer and centrifuged (25,000×g, 20 min, 4° C.). The pellets were re-suspended in fresh HSS-buffer and used for radioligand binding assays.
Competition Assay Using (±)-[^3H]Epibatidine ([^3H]Epi) and Calf Adrenals Membrane Fraction (α3β4*nAChR)
Each assay sample, with a total volume of 500 μL contained 200 μL of the test compound, 100 μL of (±)-[^3H]epibatidine, 100 μL of the calf adrenal membrane protein fraction (60-70 μg) and 100 μM of HSS-buffer. Non-specific binding was determined in the presence of 300 μM (−)-nicotine tartrate salt. The samples were homogenised and incubated for 90 min at 22° C. The incubation was terminated by vacuum filtration through glass fibre filters presoaked in 1% poly(ethyleneimine). The filters were rinsed three times with TRIS-buffer, punched out and transferred into 4 mL scintillation vials. The scintillation vials were filled with scintillation cocktail (2 mL) and the radioactivity was measured using a liquid scintillation counter.

[4] = molecular target: T4, (α1)2β1γδ nAChR (Tetronarce californica, UniProt P02710+P02714+P02718); test: biochemical; type: binding, Torpedo californica
T4 construct: 100 μL of the Torpedo californica electroplax fraction (60-70 μg); from tissue; host or cells: Torpedo californica electric organ (electroplax) membranes
T4 sequence (P02710 25-461): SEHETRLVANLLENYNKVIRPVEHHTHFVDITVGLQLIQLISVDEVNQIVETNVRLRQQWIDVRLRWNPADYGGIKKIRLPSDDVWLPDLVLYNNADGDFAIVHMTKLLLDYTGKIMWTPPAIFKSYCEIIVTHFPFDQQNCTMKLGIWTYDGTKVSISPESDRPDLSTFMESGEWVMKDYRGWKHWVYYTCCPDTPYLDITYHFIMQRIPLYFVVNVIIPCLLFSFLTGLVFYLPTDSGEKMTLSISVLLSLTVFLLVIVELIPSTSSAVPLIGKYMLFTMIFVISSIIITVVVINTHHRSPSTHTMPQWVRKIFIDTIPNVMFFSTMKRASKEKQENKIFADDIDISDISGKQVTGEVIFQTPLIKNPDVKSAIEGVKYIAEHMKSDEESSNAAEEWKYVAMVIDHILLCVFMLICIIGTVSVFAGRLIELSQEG
T4 sequence (P02712 25-493, further chain): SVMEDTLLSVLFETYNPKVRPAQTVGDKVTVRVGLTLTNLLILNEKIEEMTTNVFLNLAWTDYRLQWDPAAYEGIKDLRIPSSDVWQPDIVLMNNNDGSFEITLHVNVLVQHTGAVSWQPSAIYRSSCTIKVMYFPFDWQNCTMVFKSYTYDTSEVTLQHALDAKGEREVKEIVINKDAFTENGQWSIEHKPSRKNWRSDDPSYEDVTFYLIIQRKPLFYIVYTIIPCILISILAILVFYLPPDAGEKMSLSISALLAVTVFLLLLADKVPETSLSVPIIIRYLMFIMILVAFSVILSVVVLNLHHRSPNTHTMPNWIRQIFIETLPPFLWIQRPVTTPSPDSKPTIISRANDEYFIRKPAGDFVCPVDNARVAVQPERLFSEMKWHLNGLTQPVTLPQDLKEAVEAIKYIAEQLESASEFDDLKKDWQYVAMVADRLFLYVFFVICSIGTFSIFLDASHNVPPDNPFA
T4 sequence (P02718 22-522): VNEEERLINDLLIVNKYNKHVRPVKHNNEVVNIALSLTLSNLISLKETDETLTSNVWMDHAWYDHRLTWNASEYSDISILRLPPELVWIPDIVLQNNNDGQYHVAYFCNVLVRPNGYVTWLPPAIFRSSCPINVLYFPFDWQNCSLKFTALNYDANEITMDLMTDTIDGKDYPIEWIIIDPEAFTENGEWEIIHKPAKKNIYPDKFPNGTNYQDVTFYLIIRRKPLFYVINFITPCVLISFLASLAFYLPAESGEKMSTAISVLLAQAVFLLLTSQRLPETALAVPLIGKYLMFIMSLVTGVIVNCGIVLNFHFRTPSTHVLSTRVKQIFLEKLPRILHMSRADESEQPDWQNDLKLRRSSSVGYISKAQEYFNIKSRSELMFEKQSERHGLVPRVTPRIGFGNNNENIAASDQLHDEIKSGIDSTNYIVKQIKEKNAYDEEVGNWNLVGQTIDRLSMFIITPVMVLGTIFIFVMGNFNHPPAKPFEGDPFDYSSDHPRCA
T4 sequence (P02714 18-506): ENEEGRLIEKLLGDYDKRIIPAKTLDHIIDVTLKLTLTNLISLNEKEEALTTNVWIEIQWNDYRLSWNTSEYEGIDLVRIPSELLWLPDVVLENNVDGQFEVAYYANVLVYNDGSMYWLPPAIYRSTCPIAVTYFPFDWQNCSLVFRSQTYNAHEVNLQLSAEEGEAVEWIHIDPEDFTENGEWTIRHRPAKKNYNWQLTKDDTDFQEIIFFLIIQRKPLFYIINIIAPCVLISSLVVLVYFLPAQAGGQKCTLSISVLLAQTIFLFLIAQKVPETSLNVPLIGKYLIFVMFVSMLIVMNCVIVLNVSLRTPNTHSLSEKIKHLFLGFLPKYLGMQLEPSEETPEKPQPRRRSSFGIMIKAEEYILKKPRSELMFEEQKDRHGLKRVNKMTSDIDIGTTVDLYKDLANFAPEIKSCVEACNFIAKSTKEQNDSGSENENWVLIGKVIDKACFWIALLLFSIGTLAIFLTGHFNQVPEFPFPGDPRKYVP
Description: Preparation of Torpedo californica Electroplax
Frozen samples of Torpedo californica electric organ (−80° C.) were placed on ice for 30-60 min and allowed to thaw slowly before the membrane preparation. The tissue was homogenised in an ice-cold HSS-buffer (Ultraturrax at 750 rpm) and centrifuged (30,000×g, 10 min, 4° C.). The pellets were collected, washed four times with HSS-buffer through re-homogenization and centrifugation at the same settings. The remaining pellets were collected, re-suspended in HSS and stored in aliquots at −80° C.
One hour before the experiments the tissues were slowly thawed, homogenised in HSS-buffer and centrifuged (25,000×g, 20 min, 4° C.). The pellets were re-suspended in fresh HSS-buffer and used for radioligand binding assays.
Competition Assay Using (±)-[^3H]Epibatidine ([^3H]Epi) and Torpedo californica Electroplax ((α1)2β1γδ nAChR)
as §4, with “μL contained 200 μL” for “μL contained 100 μL of the membrane protein (60 μg), 100 μL of (±)-[^3H]epibatidine (0.5 nM), 100 μL of HSS-buffer and 200 μL”, “the test compound, 100 μL of (±)-[^3H]epibatidine and 100 μL of the Torpedo californica electroplax fraction (60-70 μg). Non-specific binding” for “the test compound Non-specific binding”, “poly(ethyleneimine). The filters were rinsed” for “poly(ethyleneimine). The filter were rinsed”
Assays were carried out in duplicates, triplicate or quadruplicates.
as §5

T1 sequence (Q05941 23-502): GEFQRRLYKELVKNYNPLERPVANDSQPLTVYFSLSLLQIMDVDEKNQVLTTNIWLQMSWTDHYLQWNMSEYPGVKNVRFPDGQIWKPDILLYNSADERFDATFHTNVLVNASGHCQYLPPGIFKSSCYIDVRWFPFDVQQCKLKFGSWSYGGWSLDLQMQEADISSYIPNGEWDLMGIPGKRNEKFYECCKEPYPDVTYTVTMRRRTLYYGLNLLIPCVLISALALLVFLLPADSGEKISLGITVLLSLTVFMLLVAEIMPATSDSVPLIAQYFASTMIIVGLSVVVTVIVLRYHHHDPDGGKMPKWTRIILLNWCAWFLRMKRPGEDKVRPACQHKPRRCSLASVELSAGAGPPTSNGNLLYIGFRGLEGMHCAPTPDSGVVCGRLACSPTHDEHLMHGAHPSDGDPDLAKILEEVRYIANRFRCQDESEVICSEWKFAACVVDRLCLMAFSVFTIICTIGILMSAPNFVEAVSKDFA

| Structure (SMILES) | Ki [1] | Ki [2] | Ki [3] | Ki [4] |
| --- | --- | --- | --- | --- |
| O=c1ccc(-c2cccc([N+](=O)[O-])c2)c2n1C[C@@H]1CNC[C@H]2C1 [104e, 5-(3′-Nitro-phenyl)-cytisine] | > 10 µM | 0.0037 µM | 0.481 µM | > 10 µM |
| O=c1c(-c2ccncc2)ccc2n1C[C@@H]1CNC[C@H]2C1 [120e, 3-(Pyridin-4′-yl)-cytisine] | – | – | – | > 10 µM |
| O=c1c(-c2cccnc2)ccc2n1CC1CNCC2C1 (centres unmarked) [drawing 100] | – | 0.00091 µM | – | > 10 µM |
| O=c1ccc(-c2cccc(C(F)(F)F)c2)c2n1C[C@@H]1CNC[C@H]2C1 [106e, 5-(3′-Trifluoromethyl-phenyl)-cytisine] | > 10 µM | 0.055 µM | > 10 µM | > 10 µM |
| O=c1c(-c2cccc(C(F)(F)F)c2)ccc2n1C[C@@H]1CNC[C@H]2C1 [96e, 3-(3′-Trifluoromethyl-phenyl)-cytisine] | > 10 µM | 0.0083 µM | 3.7 µM | > 10 µM |
| O=c1c(-c2ccccc2)cc(Br)c2n1C[C@@H]1CNC[C@H]2C1 [128e, 5-Bromo-3-phenyl-cytisine] | > 10 µM | 0.131 µM | > 5 µM | > 10 µM |
| O=c1c(-c2cccc3cccnc23)ccc2n1C[C@@H]1CNC[C@H]2C1 [121e, 3-Quinolin-8′-yl-cytisine] | > 10 µM | 0.095 µM | > 10 µM | > 10 µM |
| Cn1cc(-c2ccc3n(c2=O)CC2CNCC3C2)cn1 (centres unmarked) [122e, 3-(1-Methyl-1H-pyrazol-4′-yl)-cytisine] | > 10 µM | 0.000177 µM | 0.033 µM | > 5 µM |
| O=c1c(-c2cccc([N+](=O)[O-])c2)ccc2n1C[C@@H]1CNC[C@H]2C1 [94e, 3-(3′-Nitro-phenyl)-cytisine] | > 10 µM | 0.023 µM | > 2 µM | > 10 µM |
| O=c1ccc(-c2cccnc2)c2n1C[C@@H]1CNC[C@H]2C1 [125e, 5-(Pyridin-3′-yl)-cytisine] | > 10 µM | 0.0109 µM | 4.3 µM | > 10 µM |
| O=c1ccc(-c2cccc(F)c2)c2n1C[C@@H]1CNC[C@H]2C1 [109e, 5-(3′-Fluoro-phenyl)-cytisine] | > 10 µM | 0.3 µM | > 2 µM | > 10 µM |
| O=c1c(-c2ccc3c(c2)OCO3)ccc2n1C[C@@H]1CNC[C@H]2C1 [118e, 3-(3′,4′-Methylenedioxy-phenyl)-cytisine] | – | – | > 10 µM | > 10 µM |
| O=c1ccc(-c2cccc(-c3ccccc3)c2)c2n1C[C@@H]1CNC[C@H]2C1 [110e, 5-(Biphenyl-3′-yl)-cytisine] | > 10 µM | 0.19 µM | > 10 µM | > 10 µM |
| O=c1c(-c2ccccc2)ccc2n1C[C@@H]1CNC[C@H]2C1 [93e, 3-Phenyl-cytisine] | – | – | > 10 µM | > 10 µM |
| Cc1cccc(-c2ccc3n(c2=O)C[C@@H]2CNC[C@H]3C2)c1 [95e, 3-(3′-Methyl-phenyl)-cytisine] | > 10 µM | 0.028 µM | > 10 µM | > 10 µM |
| O=c1c(-c2cccc(Cl)c2)ccc2n1C[C@@H]1CNC[C@H]2C1 [98e, 3-(3′-Chloro-phenyl)-cytisine] | > 10 µM | 0.199 µM | > 10 µM | > 10 µM |
| O=c1c(-c2ccc3[nH]ccc3c2)ccc2n1C[C@@H]1CNC[C@H]2C1 [117e, 3-(1H-Indol-5′-yl)-cytisine] | > 10 µM | 0.853 µM | > 10 µM | > 10 µM |
| O=c1ccc(-c2ccc3c(c2)OCO3)c2n1C[C@@H]1CNC[C@H]2C1 [124e, 5-(3′,4′-Methylenedioxy-phenyl)-cytisine] | > 10 µM | 0.096 µM | > 10 µM | > 10 µM |
| O=c1c(-c2cccc(OC(F)(F)F)c2)ccc2n1C[C@@H]1CNC[C@H]2C1 [97e, 3-(3′-Trifluoromethoxy-phenyl)-cytisine] | > 10 µM | 0.067 µM | > 10 µM | > 10 µM |
| Cn1cc(-c2ccc(=O)n3c2[C@H]2CNC[C@H](C2)C3)cn1 [126e, 5-(1-Methyl-1H-pyrazol-4′-yl)-cytisine] | > 10 µM | 0.0022 µM | 0.656 µM | > 10 µM |
| O=c1c(-c2cccc(-c3ccccc3)c2)ccc2n1C[C@@H]1CNC[C@H]2C1 [100e, 3-(Biphenyl-3′-yl)-cytisine] | > 10 µM | 0.2 µM | > 10 µM | > 10 µM |
| O=c1ccc(-c2ccccc2)c2n1C[C@@H]1CNC[C@H]2C1 [103e, 5-Phenyl-cytisine] | > 10 µM | 0.045 µM | > 10 µM | > 10 µM |
| Cc1cccc(-c2ccc(=O)n3c2[C@H]2CNC[C@H](C2)C3)c1 [105e, 5-(3′-Methyl-phenyl)-cytisine] | > 10 µM | 0.024 µM | > 10 µM | > 10 µM |
| O=c1ccc(-c2cccc(OC(F)(F)F)c2)c2n1C[C@@H]1CNC[C@H]2C1 [107e, 5-(3′-Trifluoromethoxy-phenyl)-cytisine] | > 10 µM | 0.023 µM | > 10 µM | > 10 µM |
| O=c1c(-c2cccc(F)c2)ccc2n1C[C@@H]1CNC[C@H]2C1 [99e, 3-(3′-Fluoro-phenyl)-cytisine] | > 10 µM | 0.0057 µM | 1.2 µM | > 10 µM |
| O=c1ccc(-c2cccc(Cl)c2)c2n1C[C@@H]1CNC[C@H]2C1 [108e, 5-(3′-Chloro-phenyl)-cytisine] | > 10 µM | 0.17 µM | > 10 µM | > 10 µM |
| O=c1c(-c2cccnc2)ccc2n1CC1CNCC2C1 (centres unmarked) [119e, 3-(Pyridin-3′-yl)-cytisine] | > 10 µM | – | – | – |
| O=c1ccc(-c2ccc3[nH]ccc3c2)c2n1C[C@@H]1CNC[C@H]2C1 [123e, (1H-Indol-5′-yl)-cytisine] | > 10 µM | 0.0204 µM | > 10 µM | > 10 µM |
| O=c1c(-c2cccnc2)cc(Br)c2n1C[C@@H]1CNC[C@H]2C1 [129e, 5-Bromo-3-(pyridin-3′-yl)-cytisine] | > 10 µM | 0.092 µM | > 2 µM | > 10 µM |
